How the values were obtained:
[1] = tested on: plasma active GLP-1 level; experiment: Plasma active GLP-1 level in glucose-loaded diabetic mice; assay type: in vivo; conditions: male db/db mice, mean ± SEM, n=8
Protocol: Male BKS.Cg−+Lepr^db/+Lepr^db/Jcl mice; an Animal Model of Type 2 Diabetes (Purchased from CLEA Japan, Inc.)
(§1) Each test compound was suspended in a solution of 0.5% carboxymethyl cellulose containing 0.2% Tween 80 at the doses indicated in Table 3, and administered to the test group orally at a volume of 5 mL/kg. The vehicle control group was orally administered a solution of 0.5% carboxymethyl cellulose containing 0.2% Tween 80 at a volume of 5 mL/kg. Just after the administration of the compound or vehicle, a glucose solution (2 g/kg/5 mL) was given orally.
Blood was collected from the caudal vein of an unanesthetized mice just before and 0.5, 1, and 2 hours after glucose loading. Plasma active GLP-1 level was determined by using RAT ENDOCRINE LINCOplex KIT (LINCO Research).

[2] = tested on: plasma active GLP-1 level; experiment: Plasma active GLP-1 level in glucose-loaded normal (DPP4-positive) rats, Example 2; assay type: in vivo, rat; conditions: DPP4-positive male Fisher rats, mean ± SEM, n=6
Protocol: DPP4-positive male Fisher rats (purchased from Japan SLC, Inc.)
as §1, with “2,” for “3,”
Blood was collected from the caudal vein of an unanesthetized rat just before and 0.2, 0.5, 1, and 2 hours after glucose loading. Plasma active GLP-1 level was determined by using RAT ENDOCRINE LINCOplex KIT (LINCO Research).

[3] = tested on: plasma active GLP-1 level; experiment: Plasma active GLP-1 level in glucose-loaded normal (DPP4-positive) rats, Example 4; assay type: in vivo, rat; conditions: Table 6, 10 mg/kg oral, DPP4-positive male Fisher rats, mean ± SEM, n=5 or 6
Protocol: Each test compound was suspended in a solution of 0.5% carboxymethyl cellulose containing 0.2% Tween 80 at the doses indicated in Table 4, 5 or 6, and administered to the test group orally at a volume of 5 mL/kg. The vehicle control group was orally administered a solution of 0.5% carboxymethyl cellulose containing 0.2% Tween 80 at a volume of 5 mL/kg. Just after the administration of the compound or vehicle, a glucose solution (2 g/kg/5 mL) was given orally.
Blood was collected from the caudal vein of an unanesthetized rat at appropriate time described in the table. Plasma active GLP-1 level was determined by using RAT ENDOCRINE LINCOplex KIT (LINCO Research).

[4] = tested on: plasma active GLP-1 level; experiment: Plasma active GLP-1 level in glucose-loaded DPP4-deficient rats; assay type: in vivo, rat; conditions: for GLP-1 concentration at each time point (hr) after oral administration: DPP4-deficient male Fisher rats, mean ± SEM, n=6
Protocol: DPP4-deficient male Fisher rats (purchased from Charles River Japan, Inc.)
as §1, with “The” for “Each”, “1,” for “3,”, “ml)” for “mL)”
Blood was collected from the caudal vein of an unanesthetized rat just before and 0.5, 1, and 3 hours after glucose loading. Plasma active GLP-1 level was determined by using RAT ENDOCRINE LINCOplex KIT (LINCO Research).

[5] = 0 hr (just before), 3 mg/kg oral
[6] = 0 hr (just before), 10 mg/kg oral
[7] = 0 hr (just before), 30 mg/kg oral

Structure (SMILES): N#C[C@@H]1CCCN1C(=O)CN[C@H]1CC[C@H](C(=O)N2CCOCC2)CC1 (relative stereo) [Compound B, (2S)-2-Cyano-1-[trans-4-(morpholinocarbonyl)cyclohexylamino]acetylpyrrolidine]
- GLP-1 concentration at each time point (hr) after oral administration [1, 5]: 18.4 ± 5.1 pM
- GLP-1 concentration at each time point (hr) after oral administration ([1]; 0.5 hr, 3 mg/kg oral): 30.0 ± 5.5 pM
- GLP-1 concentration at each time point (hr) after oral administration ([1]; 1 hr, 3 mg/kg oral): 46.5 ± 10.1 pM
- GLP-1 concentration at each time point (hr) after oral administration ([1]; 2 hr, 3 mg/kg oral): 25.0 ± 4.1 pM
- GLP-1 concentration at each time point (hr) after oral administration [2, 5]: 7.2 ± 0.6 pM
- GLP-1 concentration at each time point (hr) after oral administration ([2]; 0.2 hr, 3 mg/kg oral): 9.8 ± 0.7 pM
- GLP-1 concentration at each time point (hr) after oral administration ([2]; 0.5 hr, 3 mg/kg oral): 9.4 ± 0.4 pM
- GLP-1 concentration at each time point (hr) after oral administration ([2]; 1 hr, 3 mg/kg oral): 8.3 ± 0.3 pM
- GLP-1 concentration at each time point (hr) after oral administration ([2]; 2 hr, 3 mg/kg oral): 7.9 ± 0.5 pM

Structure (SMILES): CN(C)C(=O)[C@H]1CC[C@H](NCC(=O)N2CCC[C@H]2C#N)CC1.O=S(=O)(O)c1ccccc1 (relative stereo) [Compound I, (2S)-2-cyano-1-[trans-4-(dimethylaminocarbonyl)cyclohexylamino]acetylpyrrolidine besylate]
- GLP-1 concentration at 2 hr after oral administration [3]: 4.0 ± 0.6 pM

Structure (SMILES): OC[C@H]1O[C@@H](c2ccc(Cl)c(Cc3ccc(-c4cccc(F)n4)s3)c2)[C@H](O)[C@@H](O)[C@@H]1O [Compound A, 1-(β-D-glucopyranosyl)-4-chloro-3-[5-(6-fluoro-2-pyridyl)-2-thienylmethyl]benzene]
- GLP-1 concentration at each time point (hr) after oral administration [4, 6]: 6.2 ± 1.3 pM
- GLP-1 concentration at each time point (hr) after oral administration [4, 7]: 5.3 ± 0.7 pM
- GLP-1 concentration at each time point (hr) after oral administration ([4]; 0.5 hr, 10 mg/kg oral): 24.5 ± 4.7 pM
- GLP-1 concentration at each time point (hr) after oral administration ([4]; 0.5 hr, 30 mg/kg oral): 24.9 ± 3.8 pM
- GLP-1 concentration at each time point (hr) after oral administration ([4]; 1 hr, 10 mg/kg oral): 31.3 ± 7.0 pM
- GLP-1 concentration at each time point (hr) after oral administration ([4]; 1 hr, 30 mg/kg oral): 34.1 ± 5.7 pM
- GLP-1 concentration at each time point (hr) after oral administration ([4]; 3 hr, 10 mg/kg oral): 21.9 ± 2.4 pM
- GLP-1 concentration at each time point (hr) after oral administration ([4]; 3 hr, 30 mg/kg oral): 27.1 ± 2.1 pM
- effect on plasma active GLP-1 level (in words) ([4]; DPP4-deficient rats, summary of Table 1): markedly increased
- GLP-1 concentration at each time point (hr) after oral administration [1, 6]: 20.3 ± 9.6 pM
- GLP-1 concentration at each time point (hr) after oral administration ([1]; 0.5 hr, 10 mg/kg oral): 42.6 ± 13.4 pM
- GLP-1 concentration at each time point (hr) after oral administration ([1]; 1 hr, 10 mg/kg oral): 49.4 ± 12.0 pM
- GLP-1 concentration at each time point (hr) after oral administration ([1]; 2 hr, 10 mg/kg oral): 30.9 ± 8.2 pM
- GLP-1 concentration at each time point (hr) after oral administration [2, 6]: 7.7 ± 0.4 pM
- GLP-1 concentration at each time point (hr) after oral administration [2, 7]: 5.9 ± 0.3 pM
- GLP-1 concentration at each time point (hr) after oral administration ([2]; 0.2 hr, 10 mg/kg oral): 7.9 ± 0.2 pM
- GLP-1 concentration at each time point (hr) after oral administration ([2]; 0.2 hr, 30 mg/kg oral): 7.1 ± 0.3 pM
- GLP-1 concentration at each time point (hr) after oral administration ([2]; 0.5 hr, 10 mg/kg oral): 10.2 ± 1.0 pM
- GLP-1 concentration at each time point (hr) after oral administration ([2]; 0.5 hr, 30 mg/kg oral): 6.7 ± 0.4 pM
- GLP-1 concentration at each time point (hr) after oral administration ([2]; 1 hr, 10 mg/kg oral): 9.5 ± 0.6 pM
- GLP-1 concentration at each time point (hr) after oral administration ([2]; 1 hr, 30 mg/kg oral): 7.5 ± 0.9 pM
- GLP-1 concentration at each time point (hr) after oral administration ([2]; 2 hr, 10 mg/kg oral): 9.6 ± 0.8 pM
- GLP-1 concentration at each time point (hr) after oral administration ([2]; 2 hr, 30 mg/kg oral): 9.0 ± 0.9 pM

Reference: US20140371162A1, “COMBINATION THERAPY COMPRISING SGLT INHIBITORS AND DPP4 INHIBITORS” (MITSUBISHI TANABE PHARMA CORPORATION, priority 2008, published 2014)
